Laboratory results from patent publication US20250369032A1 (priority 2023, published 2025).
“And” between values parts separate entries of the source, which are not always exact repeats. Equal values may be shown once. Read-outs that look alike come from different tables or passages of the source.

Key:
[1] = molecular target: T1, alkaline phosphatase (Bos taurus, UniProt P19111); type: biochemical; design: purchased Sigma Aldrich, St. Louis, MO P0114 (original source); P7640 (second source, 'new AP' condition only)
T1 sequence (P19111 20-506): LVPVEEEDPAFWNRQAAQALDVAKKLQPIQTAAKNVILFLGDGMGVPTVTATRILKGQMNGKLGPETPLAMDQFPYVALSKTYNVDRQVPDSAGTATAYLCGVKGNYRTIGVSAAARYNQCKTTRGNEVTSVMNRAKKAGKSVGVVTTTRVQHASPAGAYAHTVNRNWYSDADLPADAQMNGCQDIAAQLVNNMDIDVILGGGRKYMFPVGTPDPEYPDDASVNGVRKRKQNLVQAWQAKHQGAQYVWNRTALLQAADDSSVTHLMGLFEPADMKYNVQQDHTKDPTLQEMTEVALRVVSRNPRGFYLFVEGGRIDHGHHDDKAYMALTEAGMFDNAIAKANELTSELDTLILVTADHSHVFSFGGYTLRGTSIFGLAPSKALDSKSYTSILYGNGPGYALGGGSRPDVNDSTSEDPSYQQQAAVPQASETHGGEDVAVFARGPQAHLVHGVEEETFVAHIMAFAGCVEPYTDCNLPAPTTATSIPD

[2] = system: skin; settings: cited from earlier work
[3] = system: endogenous skin phosphatase; type: biochemical, porcine; settings: optical density compared to the naïve condition
Protocol: Our next studies involved applying the test substance (500 μL) directly to the epidermis side of previously frozen porcine skin (Spear Products, Coopersburg, PA) that is placed in a holder that only exposes the epidermis side for 30 minutes, adding phosphate buffered saline (PBS) with added sodium azide (metabolic inhibitor that ensure no viable tissue), then aliquoting into cuvettes to read at an optical density of 300 nm. […] So, at the end of the initial studies described above, almost out of frustration, we tried to probe for released phosphatase activity using p-Nitrophenyl phosphate disodium salt (PNPP; Sigma Aldrich, St. Louis, MO) substrate solution to detect any presence of phosphatase.
• 1. Thaw 2 pieces of frozen porcine skin • a. Punch out as many skin discs and mount in holders • 2. Label cuvettes (3 for each chemical)
• 1. Add 500 μL of test chemical to holder; incubate at room temperate for 30 minutes • 2. After 30 minutes, add 2 mL of PBS-Azide to both the holder containing the test chemical; forcefully pipette and re-pipette 10 times • 3. From the holder, aliquot 400 μL into 3 cuvettes; forcefully pipette and re-pipette 3 times before dispensing into cuvettes
Skin corrosion by GHS Category 1 dermal corrosive chemicals results in the disintegration of the epidermis into the dermis.

[4] = molecular target: T1, alkaline phosphatase; type: biochemical; design: purchased Sigma Aldrich, St. Louis, MO P0114 (original source); P7640 (second source, 'new AP' condition only); settings: original alkaline phosphatase 1:100 dilution
Text: Our next study focused on an in vitro method of detecting the potential of dermal corrosives to inhibit nonspecific phosphatases that may be released from the skin. We decided to test pure […] instead of relying on endogenous skin phosphatase. Alkaline phosphatase (Sigma Aldrich, St. Louis, MO) was purchased and suspended to make the reaction reagent (10,000 units). […] We note that the ratio used was 0.1 g/ml or 10% chemical-which is far in excess of any pharmaceutical applications. We further note that pharmaceutical enzyme inhibition tests, studies an use involve highly specific active site binding and these assays are conducted at ratios of micrograms-femtograms per ml. These studies are done at these ranges because these are the realistic concentrations for drug applications and therapeutics. […] So when a 50 Kg human consumes the tables, the tissues will be exposed at a 5 mg/50 kg=0.1 mg/kg=0.0000001 g/ml.
Next two quantitative methods were evaluated: 1) using the discs parts from our OptiSafe™ test method and 2) directly into the 24-well plate.
• 1. Alkaline phosphatase reaction reagent • a. Take 1 vial of AP, add 1 mL of PBS, mix by pipette/re-pipette 10 times • b. To a 50 mL conical tube, add 1 mL of the AP solution prepared above and 40 mL of PBS • 2. Prepare two 24-well plates (1 with discs, 1 without discs) • 3. […] Aliquot 200 μL PNPP and PBS
• 1. Plate 1 (No Discs) • a. Add 1.25 mL from the prepared PBS-AP conical tube to each well (11 wells) • b. Add 100 μL of the test material to the well, mix with the same pipette tip, dispose and repeat for the rest of the test materials • c. Wrap the plate in saran wrap and place into the container • 2. Plate 2 (Discs) • a. Configure the 11 discs in the plate so the plate cover is stable • b. Add 1.25 mL from the prepared PBS-AP conical tube to each well (11 wells) • c. Add 100 μL of the test material to the center of the disc and repeat for the rest of the test materials • d. Put the plate cover on and place into the container • 3. […] Incubate for 1 hour
For the new study, the alkaline phosphatase was suspended in phosphate buffered saline (PBS) to make the reaction reagent. Then, 100 μL of the test chemical is added directly into the corresponding wells on a 24-well plate with 1.25 mL of alkaline phosphatase reaction reagent already aliquoted.
• 1. Alkaline phosphatase reaction reagent • a. Take 1 vial of AP, add 1 mL of PBS, mix by pipette/re-pipette 10 times • b. To a 50 mL conical tube, add 1 mL of the AP solution prepared above and 40 mL of PBS • 2. Prepare two 24-well plates • 3. […] Aliquot with 200 μL PNPP and PBS • 4. Prepare glass vials Repeat Procedure from Jan. […] 24-well plate • a. Add 1.25 mL from the prepared PBS-AP conical tube to each well (11 wells) • b. Add 100 μL of the test material to the well, mix with the same pipette tip, dispose and repeat for the rest of the test materials • c. Wrap the plate in saran wrap and place into the container • 2. […] To the prepared 96-well plate with 200 μL PNPP or PBS, add 20 μL from the 24-well plate • 4. Incubate for 1 hour • 5.
• 1. 24-well plate • a. Add 1.25 mL from the prepared PBS-AP conical tube to each well (11 wells) • b. Add 100 μL of the test material to the well, mix with the same pipette tip, dispose and repeat for the rest of the test materials • c. After 10 minutes, mix each well • 2.

[5] = system: porcine skin; settings: R 1 and 2
Protocol: Our initial studies involved using fresh and frozen porcine skin “buttons”. These buttons were punched out of porcine skin (Spear Products, Cooopersburg, PA) using a […] biopsy punch tool. Three different kinds of skin buttons were prepared from fresh porcine skin, frozen porcine skin, and frozen porcine skin with the fatty layer removed. […] The next day, the tubes were taken out and vortexed and 500 μL of the solution was aliquoted into cuvettes to read at three different optical density wavelengths (OD190, OD290, OD300) to evaluate the best response.
• 1. Thaw 2 pieces of frozen porcine skin • 2. Punch out buttons: 24 buttons in each tube filled with 40 mL PBS-Azide
• 1. Plate layout for dosing:
• 1. Dose each tissue with 140 μL of test chemical • 2.
• 1. Take out of incubator and vortex pulse 3× • 2. Aliquot 500 μL to cuvette and read results at OD190, OD290, and OD300
There were three readings done at an optical density of 190, 290, and 300 nm to evaluate the best response. […] To address the variable exposure conditions, our next studies involved placing a larger porcine skin section into a holder that exposes only the epidermis side with no potential for test chemical exposure from the backside or through the sides.

[6] = 1:100, 20 μL into 180 μL, 0.5 mL microcentrifuge tubes, 4 hours RT, PNPP 60 min, 405 nm
[7] = average of R1-R3, 1:100, 20 μL into 180 μL, 4 hours RT, PNPP 60 min, 405 nm
[8] = skin, chemical lists of the protocols
[9] = fresh porcine skin, 140 μL, 18 hours at 37° C. in PBS-Azide
[10] = frozen porcine skin with fat layer removed

Compound	A1-Results R1 [1, 6]	A1-Results R3 [1, 6]	A1-Results AVG [1, 7]	A1-Results AVG [1]	A1-Results R1 [1]	A1-Results R3 [1]	other results
CSc1ccc(C=O)cc1	3.354	3.238	3.344	–	–	–	–
CC/C=C\CC1=C(C)CCC1=O	–	–	–	3.502	3.502	3.502	–
CC(C)=CCC/C(C)=C/CO	3.406	3.502	3.470	–	–	–	in vivo GHS [2, 8]: Cat. 2 (Category 2 (irritation; mean score of ≥2.3 and ≤4.0 for erythema/eschar or for oedema in at least 2 of 3 tested animals at 24, 48, and 72 hours or inflammation that persists to the end of 14 days))
CCCCCBr [1-Bromopentane]	3.428	3.056	3.261	–	–	–	in vivo GHS [2, 8]: Cat. 2 (Category 2 (irritation; mean score of ≥2.3 and ≤4.0 for erythema/eschar or for oedema in at least 2 of 3 tested animals at 24, 48, and 72 hours or inflammation that persists to the end of 14 days))
CCCCCCCCCCO [1-Decanol]	–	–	–	3.449	3.502	3.380	–
CC(C)(O)CCc1ccccc1 [2-Methyl-4-phenyl-2-butanol]	–	–	–	–	–	–	Corrosive ([2]; Table 2): No; percent of phosphatase measured (first reading) [3]: 98.6%; percent of phosphatase measured (second reading) [3]: 100.0%; percent of phosphatase measured, average [3]: 99.3%
CC(C)(C)c1ccccc1O [2-tert-Butylphenol]	0.437	0.607	0.524	–	–	–	in vivo GHS ([2]; rabbit, in vivo): Cat. 1B/1C; prediction based on OD405 values (FIG. 6B) ([1]; original alkaline phosphatase 1:1, 18 hours room temperature): incorrectly predicted; prediction based on OD405 values (FIG. 6D) [4]: correctly predicted
BrCCc1ccccc1 [(2-Bromoethyl)benzene]	–	–	–	–	–	–	Corrosive ([2]; rabbit, in vivo): No; percent of phosphatase measured (first reading) [3]: 100.0%; percent of phosphatase measured (second reading) [3]: 100.0%; percent of phosphatase measured, average [3]: 100.0%
CC(=O)OCc1ccccc1 [Benzyl Acetate]	3.401	3.502	3.463	–	–	–	–
O=C(OCc1ccccc1)c1ccccc1O [Benzyl Salicylate]	3.502	3.445	3.464	–	–	–	–
CC(C=O)Cc1ccc(C(C)C)cc1 (stereo not shown) [Cyclamen aldehyde]	3.405	3.502	3.470	–	–	–	Corrosive ([2]; Table 2): No; in vivo GHS ([2]; skin, Tables 1A-1C and 2): Cat. 2; in vivo GHS [2, 8]: Cat. 2 (Category 2 (irritation; mean score of ≥2.3 and ≤4.0 for erythema/eschar or for oedema in at least 2 of 3 tested animals at 24, 48, and 72 hours or inflammation that persists to the end of 14 days)); percent of phosphatase measured (first reading) [3]: 100.0%; percent of phosphatase measured (second reading) [3]: 100.0%; percent of phosphatase measured, average [3]: 100.0%; OD190 [5, 9]: 0.694 and 0.716; OD290 [5, 9]: 0.290 and 0.477; OD300 [5, 9]: 0.274 and 0.447; OD190 [5, 10]: 0.222 and 0.214; OD290 [5, 10]: 0.195 and 0.153; OD300 [5, 10]: 0.142 and 0.119; OD290 ([5]; frozen porcine skin): 1.023 and 0.955; OD300 ([5]; frozen porcine skin): 0.901 and 0.852
CCCCCCC=O [Heptanal]	–	–	–	3.196	3.409	3.049	Corrosive ([2]; rabbit, in vivo): No; in vivo GHS ([2]; rabbit, in vivo): Cat. 2; percent of phosphatase measured (first reading) [3]: 100.0%; percent of phosphatase measured (second reading) [3]: 94.4%; percent of phosphatase measured, average [3]: 97.2%
CC(CC=O)CCCC(C)(C)O (stereo not shown) [Hydroxycitronellal]	–	–	–	3.356	3.412	3.154	–
CC(C)O [Isopropanol]	–	–	–	3.423	3.484	3.305	–
CCCCCCCCCCCCCC(=O)OC(C)C [Isopropyl Myristate]	–	–	–	3.451	3.373	3.484	–
OCCc1ccccc1 [Phenylethyl alcohol]	–	–	–	3.469	3.502	3.403	–
OCCOCCOCCO [Triethylene glycol]	–	–	–	–	–	–	Corrosive ([2]; rabbit, in vivo): No; percent of phosphatase measured (first reading) [3]: 29.5%; percent of phosphatase measured (second reading) [3]: 28.2%; percent of phosphatase measured, average [3]: 28.9%
CC1=CCC(C(C)(C)O)CC1 (stereo not drawn) [alpha-Terpineol]	3.502	3.502	3.502	–	–	–	–
CCCSSCCC [di-n-Propyl disulfide]	3.467	3.395	3.445	–	–	–	Corrosive ([2]; Table 2): No; in vivo GHS ([2]; skin, Tables 1A-1C and 2): Cat. 2; in vivo GHS [2, 8]: Cat. 2 (Category 2 (irritation; mean score of ≥2.3 and ≤4.0 for erythema/eschar or for oedema in at least 2 of 3 tested animals at 24, 48, and 72 hours or inflammation that persists to the end of 14 days)); percent of phosphatase measured (first reading) [3]: 68.1%; percent of phosphatase measured (second reading) [3]: 71.6%; percent of phosphatase measured, average [3]: 69.9%
CCCCCCCN [n-Heptylamine]	–	–	–	2.557	2.141	2.862	in vivo GHS [2, 8]: Cat. 1B/1C; OD405 readings (FIG. 6D) [1]: 3.244 and 3.057 and 3.152; prediction based on OD405 values (FIG. 6B) [1]: incorrectly predicted
C=C(C)[C@@H]1CC=C(CO)CC1 [p-Metha-1,8-dien-7-ol]	–	–	–	–	–	–	in vivo GHS [2, 8]: Cat. 2 (Category 2 (irritation; mean score of ≥2.3 and ≤4.0 for erythema/eschar or for oedema in at least 2 of 3 tested animals at 24, 48, and 72 hours or inflammation that persists to the end of 14 days))
